This passage reports Ki results from patent US10640469B2, “Polyhydroxyphthalazinone compound, preparation method thereof and use thereof” (RejuvGen Pharmaceuticals, Inc., priority 2017, dated 2020).

One assay concerns the target ER-β receptor (Homo sapiens, UniProt Q92731). Description: Radioligand ([3H]-estradiol) competition binding to estrogen receptor, ER-β. The note with it: [3H]-estradiol 100 nM, incubated overnight at 4° C., GF/B filtration, scintillation counting; read-out: Affinity constant of ER-β receptor. As to the method: (§1) The activity of the compound was obtained as follows: the compound was first dissolved in DMSO and formulated into 6-8 concentration gradient solutions. The estrogen receptor and radiolabeled estradiol ([^3H]-estradiol, 100 nM) were added into the buffer and mixed to prepare a reaction solution. Each compound concentration gradient solution was separately added into the reaction solution, mixed, and incubated overnight at 4° C. so that the compound and estradiol fully reacted with the estrogen receptor. Then, the TopCount NXT Liquid Scintillation Counter (Perkin Elmer) was used for the radioactivity intensity measurement after GF/B filtration. Data processing was performed according to the detected values of each concentration to obtain the affinity constant of the compound with estrogen receptor, as shown in the following table: […]

For the next assay, the target named is T1, ER-α receptor (Homo sapiens, UniProt P03372).
T1 sequence (P03372 1-595): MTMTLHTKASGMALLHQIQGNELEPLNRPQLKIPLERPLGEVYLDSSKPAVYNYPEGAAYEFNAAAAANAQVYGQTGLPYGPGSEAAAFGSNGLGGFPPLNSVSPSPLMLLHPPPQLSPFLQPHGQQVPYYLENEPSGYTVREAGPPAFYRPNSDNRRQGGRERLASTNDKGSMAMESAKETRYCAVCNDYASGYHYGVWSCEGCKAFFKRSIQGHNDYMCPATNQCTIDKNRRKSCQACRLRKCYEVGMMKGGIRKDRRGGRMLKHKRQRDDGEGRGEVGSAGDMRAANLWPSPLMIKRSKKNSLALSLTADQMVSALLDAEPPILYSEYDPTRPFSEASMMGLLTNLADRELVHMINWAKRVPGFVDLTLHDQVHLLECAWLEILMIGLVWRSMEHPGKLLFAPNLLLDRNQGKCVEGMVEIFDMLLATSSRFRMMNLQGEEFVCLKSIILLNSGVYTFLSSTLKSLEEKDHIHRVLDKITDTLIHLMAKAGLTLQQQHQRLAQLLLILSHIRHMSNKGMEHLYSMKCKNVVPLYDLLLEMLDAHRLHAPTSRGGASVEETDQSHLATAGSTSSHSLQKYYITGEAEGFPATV
Description: Radioligand ([3H]-estradiol) competition binding to estrogen receptor, ER-α. The note with it: [3H]-estradiol 100 nM, incubated overnight at 4° C., GF/B filtration, scintillation counting; read-out: Affinity constant of ER-α receptor. As to the method: as §1

Molecules are shown by their SMILES.

Sequence of ER-β receptor (Q92731 whole entry): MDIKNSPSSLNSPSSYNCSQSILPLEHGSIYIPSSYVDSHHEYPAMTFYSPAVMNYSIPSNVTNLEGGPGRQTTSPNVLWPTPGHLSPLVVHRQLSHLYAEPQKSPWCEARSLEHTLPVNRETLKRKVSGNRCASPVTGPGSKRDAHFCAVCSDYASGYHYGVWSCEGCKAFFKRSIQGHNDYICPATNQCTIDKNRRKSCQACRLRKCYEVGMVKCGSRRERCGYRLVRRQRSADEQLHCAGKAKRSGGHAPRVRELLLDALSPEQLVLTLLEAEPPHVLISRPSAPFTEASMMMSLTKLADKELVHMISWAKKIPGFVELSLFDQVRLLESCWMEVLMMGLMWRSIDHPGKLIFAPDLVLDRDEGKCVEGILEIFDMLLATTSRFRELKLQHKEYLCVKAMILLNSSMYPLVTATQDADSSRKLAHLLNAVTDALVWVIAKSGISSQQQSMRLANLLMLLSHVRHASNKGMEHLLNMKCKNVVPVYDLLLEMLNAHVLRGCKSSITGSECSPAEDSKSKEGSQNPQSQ

In the case of `O=c1c2c(O)cc(O)cc2cnn1-c1ccc(O)cc1`, the Ki on ER-β receptor was determined as 105 nM; at ER-α receptor it was 1200 nM.
In the same order, the values of `Cc1nn(-c2ccc(O)cc2)c(=O)c2c(O)cc(O)cc12` are 8 nM and 76 nM.
Regarding `CCc1nn(-c2ccc(O)cc2)c(=O)c2c(O)cc(O)cc12`, the Ki at ER-β receptor came out at 10 nM; on ER-α receptor, 98 nM.
The like results for `O=c1c2c(O)cc(O)c(Br)c2cnn1-c1ccc(O)cc1` were, in that order, 1500 nM and 3600 nM.
